Results on two compounds are retold here after ChEMBL document CHEMBL5653615 (J Biol Chem, 2013).

In experiment [1] the target is T1, Cytoplasmic tyrosine-protein kinase BMX (Homo sapiens) (UniProt P51813).
T1 sequence (whole entry): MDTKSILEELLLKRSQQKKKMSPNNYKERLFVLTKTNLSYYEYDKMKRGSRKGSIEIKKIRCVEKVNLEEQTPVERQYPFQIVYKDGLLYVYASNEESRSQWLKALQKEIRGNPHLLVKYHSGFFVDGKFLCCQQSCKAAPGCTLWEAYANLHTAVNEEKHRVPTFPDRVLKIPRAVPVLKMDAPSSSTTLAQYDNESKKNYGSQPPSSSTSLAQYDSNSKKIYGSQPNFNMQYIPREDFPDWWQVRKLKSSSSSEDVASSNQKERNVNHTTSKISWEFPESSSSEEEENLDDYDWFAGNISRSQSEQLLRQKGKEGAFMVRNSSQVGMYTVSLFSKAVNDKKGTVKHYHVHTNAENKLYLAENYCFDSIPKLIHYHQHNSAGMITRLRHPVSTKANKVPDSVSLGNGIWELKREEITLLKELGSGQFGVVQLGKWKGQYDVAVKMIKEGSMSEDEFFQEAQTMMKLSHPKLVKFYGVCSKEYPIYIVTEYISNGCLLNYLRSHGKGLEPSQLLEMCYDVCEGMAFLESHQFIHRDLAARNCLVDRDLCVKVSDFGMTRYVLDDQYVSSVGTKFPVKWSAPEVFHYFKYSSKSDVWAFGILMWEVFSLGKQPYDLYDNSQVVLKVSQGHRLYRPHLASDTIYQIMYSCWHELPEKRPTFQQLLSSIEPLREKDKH
Briefly: Inhibition of human BMX at 1.82 nM by HotSpot assay relative to control.

Experiment [2] deals with Ephrin type-A receptor 4 (Homo sapiens) (UniProt P54764). Briefly: Inhibition of human EPHA4 at 1.82 nM by HotSpot assay relative to control.
Chain of Ephrin type-A receptor 4 (Homo sapiens) (P54764 whole entry): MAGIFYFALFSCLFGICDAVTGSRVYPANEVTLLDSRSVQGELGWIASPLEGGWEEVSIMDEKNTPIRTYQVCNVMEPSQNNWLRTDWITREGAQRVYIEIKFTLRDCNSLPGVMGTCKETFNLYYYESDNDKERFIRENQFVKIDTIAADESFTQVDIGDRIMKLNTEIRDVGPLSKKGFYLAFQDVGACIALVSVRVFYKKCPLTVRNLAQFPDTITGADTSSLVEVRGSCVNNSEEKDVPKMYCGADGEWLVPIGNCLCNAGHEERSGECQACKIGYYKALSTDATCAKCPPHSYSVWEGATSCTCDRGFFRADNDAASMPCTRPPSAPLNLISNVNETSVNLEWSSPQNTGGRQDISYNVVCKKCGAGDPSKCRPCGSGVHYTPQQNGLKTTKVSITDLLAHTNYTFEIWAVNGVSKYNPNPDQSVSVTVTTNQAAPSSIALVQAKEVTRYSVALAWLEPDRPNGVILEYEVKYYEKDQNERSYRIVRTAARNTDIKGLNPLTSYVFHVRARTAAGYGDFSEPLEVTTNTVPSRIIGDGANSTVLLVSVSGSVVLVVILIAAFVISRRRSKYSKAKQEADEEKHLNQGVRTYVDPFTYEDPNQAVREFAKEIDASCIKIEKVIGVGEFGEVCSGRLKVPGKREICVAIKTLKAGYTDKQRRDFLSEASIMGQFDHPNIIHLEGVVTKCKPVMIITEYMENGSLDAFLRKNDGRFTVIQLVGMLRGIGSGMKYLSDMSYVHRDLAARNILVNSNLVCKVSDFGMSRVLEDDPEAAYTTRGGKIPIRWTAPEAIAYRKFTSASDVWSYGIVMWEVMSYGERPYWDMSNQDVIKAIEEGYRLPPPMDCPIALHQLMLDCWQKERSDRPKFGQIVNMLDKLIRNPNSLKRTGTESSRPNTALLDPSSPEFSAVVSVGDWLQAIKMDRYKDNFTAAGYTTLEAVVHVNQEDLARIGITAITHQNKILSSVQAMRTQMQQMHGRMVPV
The target of experiment [3] is Misshapen-like kinase 1 (Homo sapiens) (UniProt Q8N4C8). Briefly: Inhibition of human MINK1 at 1.82 nM by HotSpot assay relative to control.
Chain of Misshapen-like kinase 1 (Homo sapiens) (Q8N4C8 whole entry, looked up): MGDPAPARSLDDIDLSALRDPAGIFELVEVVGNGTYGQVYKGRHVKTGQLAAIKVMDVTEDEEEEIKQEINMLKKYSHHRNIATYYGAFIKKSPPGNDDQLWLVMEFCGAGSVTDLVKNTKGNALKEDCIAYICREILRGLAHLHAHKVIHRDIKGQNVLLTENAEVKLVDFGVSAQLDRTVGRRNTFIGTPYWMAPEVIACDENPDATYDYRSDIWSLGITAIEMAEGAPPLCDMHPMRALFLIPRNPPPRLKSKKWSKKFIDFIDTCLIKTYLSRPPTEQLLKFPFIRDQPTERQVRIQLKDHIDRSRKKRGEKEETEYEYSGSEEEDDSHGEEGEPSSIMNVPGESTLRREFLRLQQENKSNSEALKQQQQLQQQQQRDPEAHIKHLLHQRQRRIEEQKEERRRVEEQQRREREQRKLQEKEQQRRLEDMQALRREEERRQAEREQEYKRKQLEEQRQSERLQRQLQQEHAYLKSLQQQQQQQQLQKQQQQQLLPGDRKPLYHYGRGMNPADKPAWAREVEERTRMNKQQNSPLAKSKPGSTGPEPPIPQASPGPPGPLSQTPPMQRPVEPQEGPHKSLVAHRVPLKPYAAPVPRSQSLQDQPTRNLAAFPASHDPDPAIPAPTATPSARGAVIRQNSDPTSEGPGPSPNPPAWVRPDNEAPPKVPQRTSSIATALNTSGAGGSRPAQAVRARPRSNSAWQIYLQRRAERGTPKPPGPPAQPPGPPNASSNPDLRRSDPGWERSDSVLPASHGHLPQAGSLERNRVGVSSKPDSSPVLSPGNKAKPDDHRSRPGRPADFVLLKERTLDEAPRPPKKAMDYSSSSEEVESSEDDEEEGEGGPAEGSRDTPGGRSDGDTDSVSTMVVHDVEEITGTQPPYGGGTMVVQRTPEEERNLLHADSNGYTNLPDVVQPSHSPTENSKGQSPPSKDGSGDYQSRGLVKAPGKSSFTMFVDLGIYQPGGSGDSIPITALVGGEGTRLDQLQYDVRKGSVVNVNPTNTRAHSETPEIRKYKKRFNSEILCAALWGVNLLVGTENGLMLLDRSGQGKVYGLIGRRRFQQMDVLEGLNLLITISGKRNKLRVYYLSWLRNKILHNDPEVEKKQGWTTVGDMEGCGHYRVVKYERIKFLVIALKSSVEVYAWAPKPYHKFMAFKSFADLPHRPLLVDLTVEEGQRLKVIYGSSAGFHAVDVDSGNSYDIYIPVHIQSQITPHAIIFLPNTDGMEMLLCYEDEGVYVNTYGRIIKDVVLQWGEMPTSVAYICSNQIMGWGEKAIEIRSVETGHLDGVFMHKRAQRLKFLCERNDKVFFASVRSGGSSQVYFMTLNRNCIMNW
Experiment [4] addresses Serine/threonine-protein kinase MRCK beta (Homo sapiens) (UniProt Q9Y5S2). Briefly: Inhibition of human CDC42BPB at 1.82 nM by HotSpot assay relative to control.
The target in experiment [5] is Proto-oncogene tyrosine-protein kinase ROS (Homo sapiens) (UniProt P08922). The experiment can be described thus: Inhibition of human ROS1 at 1.82 nM by HotSpot assay relative to control.
For experiment [6], the target named is Serine/threonine-protein kinase WNK2 (Homo sapiens) (UniProt Q9Y3S1). Briefly: Inhibition of human WNK2 at 1.82 nM by HotSpot assay relative to control.
Experiment [7] concerns the target CDK6/cyclin D1 (Homo sapiens) (UniProt P24385+Q00534). Briefly: Inhibition of human CDK6/cyclin D1 at 18.6 nM by HotSpot assay relative to control. It is filed as protein-complex assay.
For experiment [8], the target named is Tyrosine-protein kinase CSK (Homo sapiens) (UniProt P41240). Briefly: Inhibition of human CSK at 18.6 nM by HotSpot assay relative to control.
Chain of Tyrosine-protein kinase CSK (Homo sapiens) (P41240 2-450 limits assumed): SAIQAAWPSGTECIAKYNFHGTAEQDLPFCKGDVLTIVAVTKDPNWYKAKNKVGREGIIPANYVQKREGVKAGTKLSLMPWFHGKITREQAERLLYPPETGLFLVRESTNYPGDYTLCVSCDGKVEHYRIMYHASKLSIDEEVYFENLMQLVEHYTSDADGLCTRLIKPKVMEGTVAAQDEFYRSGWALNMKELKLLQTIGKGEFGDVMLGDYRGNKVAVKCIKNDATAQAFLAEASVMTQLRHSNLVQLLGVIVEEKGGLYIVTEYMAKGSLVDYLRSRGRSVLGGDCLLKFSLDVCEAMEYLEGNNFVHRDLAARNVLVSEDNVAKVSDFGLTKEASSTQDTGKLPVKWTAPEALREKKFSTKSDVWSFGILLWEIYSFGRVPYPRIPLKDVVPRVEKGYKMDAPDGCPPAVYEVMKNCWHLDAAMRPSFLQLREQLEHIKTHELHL
Experiment [9] addresses G protein-coupled receptor kinase 5 (Homo sapiens) (UniProt P34947). The experiment can be described thus: Inhibition of human GRK5 at 18.6 nM by HotSpot assay relative to control.
For experiment [10], the target named is Ribosomal protein S6 kinase beta-2 (Homo sapiens) (UniProt Q9UBS0). Briefly: Inhibition of human RPS6KB2 at 18.6 nM by HotSpot assay relative to control.
Chain of Ribosomal protein S6 kinase beta-2 (Homo sapiens) (Q9UBS0 whole entry): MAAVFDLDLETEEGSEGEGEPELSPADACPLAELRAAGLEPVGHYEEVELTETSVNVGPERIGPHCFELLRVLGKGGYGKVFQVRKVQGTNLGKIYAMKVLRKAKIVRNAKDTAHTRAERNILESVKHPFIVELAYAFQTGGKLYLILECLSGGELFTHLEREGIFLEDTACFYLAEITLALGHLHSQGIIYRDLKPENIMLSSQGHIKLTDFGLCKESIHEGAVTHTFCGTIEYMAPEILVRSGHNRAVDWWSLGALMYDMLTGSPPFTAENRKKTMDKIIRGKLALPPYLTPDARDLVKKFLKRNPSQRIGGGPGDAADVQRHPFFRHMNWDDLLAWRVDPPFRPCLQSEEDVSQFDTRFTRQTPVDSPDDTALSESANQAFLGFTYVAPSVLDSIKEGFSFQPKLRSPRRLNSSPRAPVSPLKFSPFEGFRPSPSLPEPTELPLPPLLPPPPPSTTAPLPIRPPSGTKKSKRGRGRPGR
Experiment [11] addresses Tyrosine-protein kinase Srms (Homo sapiens) (UniProt Q9H3Y6). The experiment can be described thus: Inhibition of human SRMS at 18.6 nM by HotSpot assay relative to control.
Experiment [12] has as its target T2, Serine/threonine-protein kinase TBK1 (Homo sapiens) (UniProt Q9UHD2).
T2 sequence (whole entry): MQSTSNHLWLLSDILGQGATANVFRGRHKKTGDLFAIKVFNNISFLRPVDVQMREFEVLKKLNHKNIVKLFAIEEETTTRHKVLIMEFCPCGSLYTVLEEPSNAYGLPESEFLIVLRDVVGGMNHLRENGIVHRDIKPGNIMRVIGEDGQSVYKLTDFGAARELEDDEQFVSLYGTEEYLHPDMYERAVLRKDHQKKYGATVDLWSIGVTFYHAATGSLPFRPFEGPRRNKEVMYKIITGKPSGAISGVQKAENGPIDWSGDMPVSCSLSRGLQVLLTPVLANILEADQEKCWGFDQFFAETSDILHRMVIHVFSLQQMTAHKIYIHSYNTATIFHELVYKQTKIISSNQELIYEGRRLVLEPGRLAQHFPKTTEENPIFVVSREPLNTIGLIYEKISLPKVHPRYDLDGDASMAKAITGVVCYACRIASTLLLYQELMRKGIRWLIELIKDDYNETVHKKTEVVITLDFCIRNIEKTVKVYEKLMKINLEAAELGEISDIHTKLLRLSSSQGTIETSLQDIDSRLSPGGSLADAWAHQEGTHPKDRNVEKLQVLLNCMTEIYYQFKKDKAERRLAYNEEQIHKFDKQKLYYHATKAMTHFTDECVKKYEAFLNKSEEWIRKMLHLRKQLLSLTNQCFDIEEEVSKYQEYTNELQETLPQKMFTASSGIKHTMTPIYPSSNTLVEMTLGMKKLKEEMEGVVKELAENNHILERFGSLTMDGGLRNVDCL
The experiment can be described thus: Inhibition of human TBK1 at 18.6 nM by HotSpot assay relative to control.

Experiment [13] deals with Wee1-like protein kinase (Homo sapiens) (UniProt P30291). Briefly: Inhibition of human WEE1 at 18.6 nM by HotSpot assay relative to control.
Chain of Wee1-like protein kinase (Homo sapiens) (P30291 whole entry, looked up): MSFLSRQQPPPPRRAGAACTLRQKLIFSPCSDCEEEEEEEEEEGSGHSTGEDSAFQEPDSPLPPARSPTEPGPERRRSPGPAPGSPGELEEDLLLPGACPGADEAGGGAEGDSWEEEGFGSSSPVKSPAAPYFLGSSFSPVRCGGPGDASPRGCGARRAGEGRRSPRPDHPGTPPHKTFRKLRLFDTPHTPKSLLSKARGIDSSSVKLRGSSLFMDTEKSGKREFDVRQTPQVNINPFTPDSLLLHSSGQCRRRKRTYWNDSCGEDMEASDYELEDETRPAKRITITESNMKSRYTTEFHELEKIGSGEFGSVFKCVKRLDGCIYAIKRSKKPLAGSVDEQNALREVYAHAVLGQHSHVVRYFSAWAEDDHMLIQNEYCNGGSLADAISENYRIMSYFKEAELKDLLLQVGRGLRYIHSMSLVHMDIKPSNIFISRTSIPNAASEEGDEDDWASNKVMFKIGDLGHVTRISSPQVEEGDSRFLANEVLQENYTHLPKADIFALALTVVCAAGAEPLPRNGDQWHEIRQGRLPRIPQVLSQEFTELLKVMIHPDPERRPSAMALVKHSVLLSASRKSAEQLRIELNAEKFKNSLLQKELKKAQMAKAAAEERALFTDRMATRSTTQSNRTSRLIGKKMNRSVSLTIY

Each structure is given as a SMILES string.

Chain of Tyrosine-protein kinase Srms (Homo sapiens) (Q9H3Y6 whole entry): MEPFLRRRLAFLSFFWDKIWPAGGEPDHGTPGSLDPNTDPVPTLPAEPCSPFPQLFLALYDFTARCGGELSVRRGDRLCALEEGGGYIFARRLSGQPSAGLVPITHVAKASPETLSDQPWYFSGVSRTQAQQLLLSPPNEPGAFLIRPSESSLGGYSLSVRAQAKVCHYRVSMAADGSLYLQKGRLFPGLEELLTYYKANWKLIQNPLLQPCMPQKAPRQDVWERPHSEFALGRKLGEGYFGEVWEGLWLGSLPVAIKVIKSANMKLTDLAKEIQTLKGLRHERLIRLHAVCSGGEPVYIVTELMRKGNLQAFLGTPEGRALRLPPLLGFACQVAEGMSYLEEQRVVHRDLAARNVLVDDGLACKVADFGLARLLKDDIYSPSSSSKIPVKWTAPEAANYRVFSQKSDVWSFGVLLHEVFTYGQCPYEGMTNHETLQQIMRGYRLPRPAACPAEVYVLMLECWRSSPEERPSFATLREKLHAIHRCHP
Chain of G protein-coupled receptor kinase 5 (Homo sapiens) (P34947 whole entry, looked up): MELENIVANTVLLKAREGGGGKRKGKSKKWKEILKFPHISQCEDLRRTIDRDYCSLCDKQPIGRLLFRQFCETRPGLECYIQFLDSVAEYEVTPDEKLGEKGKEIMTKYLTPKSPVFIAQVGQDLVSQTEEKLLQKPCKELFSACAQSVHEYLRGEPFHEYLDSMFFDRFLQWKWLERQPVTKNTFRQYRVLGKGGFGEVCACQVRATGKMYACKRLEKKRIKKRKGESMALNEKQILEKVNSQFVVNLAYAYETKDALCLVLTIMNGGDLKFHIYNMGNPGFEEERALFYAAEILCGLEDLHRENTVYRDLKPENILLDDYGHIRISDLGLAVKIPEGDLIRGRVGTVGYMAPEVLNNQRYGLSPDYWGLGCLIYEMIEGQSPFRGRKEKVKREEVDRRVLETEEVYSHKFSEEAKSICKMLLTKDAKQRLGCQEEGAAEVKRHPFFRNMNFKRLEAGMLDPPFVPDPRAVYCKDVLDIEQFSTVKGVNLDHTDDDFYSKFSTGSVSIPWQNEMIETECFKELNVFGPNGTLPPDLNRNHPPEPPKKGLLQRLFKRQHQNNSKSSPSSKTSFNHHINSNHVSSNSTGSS

Regarding `C[C@@]1(C(=O)Nc2ccc(F)nc2)CCCN1c1nc(Nc2cc(C3CC3)n[nH]2)c2cccn2n1`, the inhibition in experiment [1] is -1.37%; in experiment [2], -4.4%; in experiment [3], 0.36%; in experiment [4] it was -4.49%; in [5] it was 73.5%; in experiment [6] it was -1.14%.
`C[C@]1(O)C[C@@H](c2nc(-c3ccc4ccc(-c5ccccc5)nc4c3)c3c(N)nccn32)C1`: the inhibition in experiment [7] is 0.62%; in experiment [8], 3.89%; in experiment [9], -6.77%; in experiment [10], 0.94%; in experiment [11], -0.53%; in experiment [12] it was 5.59%. Besides, the inhibition in experiment [13] was 7.34%.
